# Reference: ChEMBL document CHEMBL1201862, “PubChem BioAssay data set” (2004)
# The source made the active and inactive calls.
# Experiments:
# Leucine aminopeptidase = biological target: T1, Leucine aminopeptidase (Plasmodium falciparum 3D7, UniProt Q8IL11); assay: P. falciparum M17LAP inhibitors, primary screen, biochemical, fluorogenic H-Leu-NHMec substrate, 1536-well (AID 1619); assay type: functional
# T1 sequence (Q8IL11 whole entry): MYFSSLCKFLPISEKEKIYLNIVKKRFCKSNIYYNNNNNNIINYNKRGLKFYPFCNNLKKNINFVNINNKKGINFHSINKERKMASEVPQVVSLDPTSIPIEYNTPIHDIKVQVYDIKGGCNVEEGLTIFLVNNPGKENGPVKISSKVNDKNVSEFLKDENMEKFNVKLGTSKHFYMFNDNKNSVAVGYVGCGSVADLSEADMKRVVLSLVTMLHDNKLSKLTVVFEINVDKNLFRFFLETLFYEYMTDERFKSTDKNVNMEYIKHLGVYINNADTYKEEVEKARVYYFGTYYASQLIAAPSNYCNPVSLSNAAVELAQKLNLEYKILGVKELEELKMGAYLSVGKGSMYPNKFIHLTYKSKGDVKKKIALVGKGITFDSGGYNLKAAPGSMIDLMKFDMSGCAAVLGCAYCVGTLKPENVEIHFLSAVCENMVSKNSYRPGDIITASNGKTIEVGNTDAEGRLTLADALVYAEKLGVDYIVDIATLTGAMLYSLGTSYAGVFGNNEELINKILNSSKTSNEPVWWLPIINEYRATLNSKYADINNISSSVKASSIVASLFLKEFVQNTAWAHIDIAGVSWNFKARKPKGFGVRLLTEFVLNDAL
# [1] = viability of uninfected HEp-2 cells – cell-based, HTS, cytotoxicity control for RSV inhibitor project, dose response (AID 2410); assay type: functional; settings: human respiratory syncytial virus
# Cytochrome P450 2D6 = Cytochrome P450 2D6 (Homo sapiens, UniProt P10635);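 further: CYP2D6 member of a cytochrome P450 panel assay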
# Cytochrome P450 1A2 = biological target: T2, Cytochrome P450 1A2 (Homo sapiens, UniProt P05177);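 further: PubChem cytochrome P450 panel assay, CYP1A2 panel member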
# T2 sequence (P05177 whole entry): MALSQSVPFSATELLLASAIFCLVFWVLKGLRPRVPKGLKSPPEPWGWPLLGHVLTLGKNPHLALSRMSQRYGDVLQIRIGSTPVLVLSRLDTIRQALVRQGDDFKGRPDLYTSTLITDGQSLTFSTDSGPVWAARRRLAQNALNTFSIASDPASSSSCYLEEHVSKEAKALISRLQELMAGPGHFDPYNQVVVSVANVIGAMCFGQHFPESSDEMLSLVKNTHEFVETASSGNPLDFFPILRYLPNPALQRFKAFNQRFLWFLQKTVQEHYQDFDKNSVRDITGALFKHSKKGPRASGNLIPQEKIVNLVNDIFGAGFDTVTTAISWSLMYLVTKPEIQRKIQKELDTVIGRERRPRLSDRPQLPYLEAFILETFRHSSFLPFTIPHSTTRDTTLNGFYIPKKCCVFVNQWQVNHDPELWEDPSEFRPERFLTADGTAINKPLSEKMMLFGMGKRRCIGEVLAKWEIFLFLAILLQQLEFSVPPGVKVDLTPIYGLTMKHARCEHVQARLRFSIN
# [2] = biological target: T3, Polyadenylate-binding protein 1 (Homo sapiens, UniProt P11940); assay: MLLE binding blockers, Cy5 peptide tracer – biochemical, fluorescence polarization, Cy5-PAM2 peptide, secondary, miRNA deadenylation inhibitor project, dose response (AID 602260); assay type: functional; settings: read-out: IC50_Mean
# [3] = biological target: T3, Polyadenylate-binding protein 1; assay: MLLE domain peptide-binding blockers, IC50 – biochemical, fluorescence polarization, FITC-PAM2 peptide, dose response (AID 602259); assay type: functional; settings: read-out: IC50_Mean
# Cytochrome P450 2C19 = Cytochrome P450 2C19 (Homo sapiens, UniProt P33261); assay: Cytochrome panel assay with activity outcomes. Panel member name: p450-cyp2c19 Compounds with AC50 equal or less than 10 uM are considered active; assay type: functional; settings: read-out: AC50
# BJ [4] = assay: BJ-TERT fibroblast viability loss – cell-based, RAS-independent, luminescence, dose response (AID 1933); assay type: functional; settings: Homo sapiens
# BJ [5] = assay: cells; assay type: functional, cell-based; settings: Homo sapiens
# BJ [6] = assay: BJ-TERT-LT-ST fibroblast viability loss – cell-based, RAS-independent, luminescence, dose response (AID 1935); assay type: functional; settings: Homo sapiens;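 further: BJ fibroblasts immortalized with TERT plus LT and ST oncogenes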
# [7] = DRD fibroblast viability loss – cell-based, non-viral oncogenic, luminescence, dose response (AID 1934); assay type: functional; settings: Homo sapiens
# T3 sequence (P11940 whole entry, the tested form may be a part): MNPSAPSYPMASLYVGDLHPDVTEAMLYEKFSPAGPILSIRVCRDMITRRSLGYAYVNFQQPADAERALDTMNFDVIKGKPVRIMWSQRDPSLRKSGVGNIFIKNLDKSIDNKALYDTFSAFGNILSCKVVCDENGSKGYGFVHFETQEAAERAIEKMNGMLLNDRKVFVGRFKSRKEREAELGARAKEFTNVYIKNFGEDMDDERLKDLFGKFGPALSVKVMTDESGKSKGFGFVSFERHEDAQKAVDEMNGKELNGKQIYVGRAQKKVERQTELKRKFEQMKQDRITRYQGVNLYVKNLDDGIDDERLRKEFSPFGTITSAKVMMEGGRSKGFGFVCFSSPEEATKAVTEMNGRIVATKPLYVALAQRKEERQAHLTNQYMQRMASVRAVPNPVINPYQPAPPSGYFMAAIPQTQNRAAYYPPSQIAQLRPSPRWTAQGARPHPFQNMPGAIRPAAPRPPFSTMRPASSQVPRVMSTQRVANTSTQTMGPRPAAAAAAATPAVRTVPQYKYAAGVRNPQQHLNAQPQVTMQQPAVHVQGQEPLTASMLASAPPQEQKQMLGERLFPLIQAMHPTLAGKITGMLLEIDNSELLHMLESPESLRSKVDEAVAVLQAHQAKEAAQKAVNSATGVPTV
# Chain of Cytochrome P450 2D6 (P10635 whole entry): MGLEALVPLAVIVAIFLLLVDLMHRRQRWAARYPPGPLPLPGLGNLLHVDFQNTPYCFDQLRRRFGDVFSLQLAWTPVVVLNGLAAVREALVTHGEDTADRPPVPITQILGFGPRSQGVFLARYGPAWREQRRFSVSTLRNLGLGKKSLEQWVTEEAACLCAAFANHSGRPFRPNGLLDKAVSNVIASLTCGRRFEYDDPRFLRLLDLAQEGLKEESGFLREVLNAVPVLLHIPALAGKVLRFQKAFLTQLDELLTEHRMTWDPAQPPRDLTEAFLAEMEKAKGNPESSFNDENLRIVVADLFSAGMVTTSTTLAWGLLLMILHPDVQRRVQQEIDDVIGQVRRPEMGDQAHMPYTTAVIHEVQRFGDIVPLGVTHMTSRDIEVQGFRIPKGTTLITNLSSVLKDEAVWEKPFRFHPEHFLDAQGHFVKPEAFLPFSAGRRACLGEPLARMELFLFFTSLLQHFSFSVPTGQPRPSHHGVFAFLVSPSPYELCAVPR
# Chain of Cytochrome P450 2C19 (P33261 whole entry): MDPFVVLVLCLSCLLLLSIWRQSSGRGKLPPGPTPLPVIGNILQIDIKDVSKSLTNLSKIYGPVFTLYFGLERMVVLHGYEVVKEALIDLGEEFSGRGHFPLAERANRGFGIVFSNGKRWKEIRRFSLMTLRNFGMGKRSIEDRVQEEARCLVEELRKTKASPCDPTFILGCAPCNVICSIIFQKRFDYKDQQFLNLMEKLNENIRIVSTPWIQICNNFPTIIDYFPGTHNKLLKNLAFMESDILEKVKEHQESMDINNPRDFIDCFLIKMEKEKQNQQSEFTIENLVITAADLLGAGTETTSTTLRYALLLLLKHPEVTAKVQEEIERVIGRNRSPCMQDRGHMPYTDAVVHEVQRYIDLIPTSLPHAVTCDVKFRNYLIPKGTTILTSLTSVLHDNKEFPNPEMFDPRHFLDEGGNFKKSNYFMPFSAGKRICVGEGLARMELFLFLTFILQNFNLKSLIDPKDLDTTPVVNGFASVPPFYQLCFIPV
SMILES,AC50 (Cytochrome P450 2D6),IC50 [2],IC50 [3],also measured
O=C(O)C1CC=CCC1C(=O)Nc1ccc2c(c1)OCCO2 (stereo not drawn),,,,IC50 (Leucine aminopeptidase): 13.4 µM (active)
CC[C@@H]1CN2CCc3cc(OC)c(OC)cc3[C@H]2C[C@@H]1C[C@@H]1NCCc2cc(O)c(OC)cc21,10 µM (inconclusive),,,
CCc1cc(C(=O)c2ccccc2OC)c(N)s1,,> 66 µM (inactive),> 66 µM (inactive),
COC(=O)c1cc(NS(=O)(=O)c2ccc(N3CCCCC3)c([N+](=O)[O-])c2)cc(C(=O)OC)c1,10 µM (inconclusive),,,AC50 (Cytochrome P450 2C19): 2.51 µM (inconclusive); AC50 (Cytochrome P450 1A2): 15.8 µM (inconclusive)
CCc1ccc(OCCCC(=O)Nc2ccc(N3CCCCC3)cc2)cc1,1.26 µM (inconclusive),,,AC50 (Cytochrome P450 2C19): 10 µM (inconclusive)
O=C(NC(=S)Nc1ccc2oc(=O)ccc2c1)c1ccco1,,> 66 µM (inactive),> 66 µM (inactive),
CSc1cc(-c2ccccc2)n(Cc2c(Cl)cccc2Cl)c(=O)c1C#N,,,,EC50 (BJ [4]): 5.96 µM (active); EC50 (BJ [5]): 64.7 µM (inconclusive); EC50 (BJ [6]): 2.86 µM (active); EC50 [7]: 3.1 µM (active)
COCCCN=C(S)N(CCO)Cc1cc2cc3c(cc2nc1O)OCCO3,,> 66 µM (inactive),> 66 µM (inactive),

# More lines, main results first:
AC50 (Cytochrome P450 2D6),IC50 [2],IC50 [3],SMILES,also measured
28.2 µM (inconclusive),,,Cc1ccc(S(=O)(=O)CCC(=O)Nc2nc3c(s2)CCCC3)cc1,CC50 [1]: 32.3 µM (active); AC50 (Cytochrome P450 1A2): 15.8 µM (inconclusive)
,> 66 µM (inactive),> 66 µM (inactive),COc1ccc(NC(S)=Nc2cccc(Cl)c2)cc1OC,
,> 66 µM (inactive),55.8 µM (inactive),O=C(O)c1ccc(Cn2cnc3cccnc32)cc1,
,> 66 µM (inactive),> 66 µM (inactive),CCOc1ccccc1N=C(S)NNS(=O)(=O)c1c(C)cc(C)cc1C,
,> 66 µM (inactive),> 66 µM (inactive),O=C(CN1C(=O)S/C(=C\c2ccccc2)C1=O)NCCCn1ccnc1,
